Experimental data from patent US8884072B2, “Mitigation of fouling in hydroformylation processes by water addition” (Dow Technology Investments LLC, priority 2010, dated 2014).

Legend:
Format in all cases: physicochemical
[1] = Observation of HPPA-Na2 in anhydrous valeraldehyde at room temperature (Comparative Example 1); details: 15 mg in anhydrous valeraldehyde (3.52 g; 0.0961 wt % water), two hours
Procedure: One small portion (15 mg) of a disodium salt of hydroxypentylphosphonic acid (HPPA-Na2) was charged to a 20 ml glass vial under nitrogen. Anhydrous valeraldehyde (3.52 g; 0.0961 wt % water) was added and the resulting mixture was stirred at room temperature.

[2] = Solubility properties of HPPA-Na2 under simulated hydroformylation reaction conditions with incremental water addition (Example 7)
Procedure: A small portion (67 mg) of the disodium salt of hydroxypentylphosphonic acid (HPPA-Na2) was charged to a 3 oz glass pressure vessel. A 2:1 mixture of valeraldehyde and valeraldehyde trimers (4.07 g) was added, and stirring was initiated at room temperature. Butene-1 (1.22 g) was added via syringe, and the tube was placed in an oil bath at 70° C. Additional water was slowly added to determine solubility properties under simulated hydroformylation reaction conditions. Total water content is based on the initial water level (determined by K—F titration) plus the incremental water additions made throughout.

[3] = HPPA-Na2 solubility in valeraldehyde/valeraldehyde trimers/1-butene at 70° C., filtrate quantified by ion chromatography (Examples 4-6); details: two hours
Procedure: (§1) Valeraldehyde was freshly distilled under reduced pressure prior to use. Valeraldehyde trimers were obtained by vacuum distillation of a commercial catalyst recycle sample. The distillate was determined to be a mixture of 75% valeraldehyde trimers and 25% valeraldehyde dimers by gas chromatography and mass spectrometry (GC/MS). A portion of both valeraldehyde and valeraldehyde trimers was saturated with water, and then blended with freshly distilled material to provide solutions of varying water levels. Unless otherwise noted, all water concentrations were determined by Karl-Fischer titration.
One small portion (130-160 mg) of the disodium salt of hydroxypentylphosphonic acid (HPPA-Na2) was charged to each of three, 3 oz glass pressure vessels. Valeraldehyde, valeraldehyde trimers and 1-butene were then added via syringe and the resulting mixtures (which contained various levels of water) were stirred vigorously at 70° C. for two hours. Samples were then removed at temperature, quickly filtered, and the filtrate was twice extracted with water to facilitate the quantization of HPPA-Na2 solubility by ion chromatography.
The solutions of Examples 4-6 were intended to model actual hydroformylation solution conditions.

[4] = Observation of HPPA-Na2 in valeraldehyde/valeraldehyde trimers (2:1) and 1-butene, stirred at room temperature for two hours (Examples 1-3)
Procedure: as §1
One small portion (70 mg) of a disodium salt of hydroxypentylphosphonic acid (HPPA-Na2) was charged to each of three, 3 oz glass pressure vessels. Valeraldehyde, valeraldehyde trimers (2:1 weight ratio) and 1-butene were then added via syringe and stirred at room temperature for two hours.

CCCCC(O)P(=O)([O-])[O-].[Na+].[Na+] (centres unmarked) [HPPA-Na2, disodium salt of hydroxypentylphosphonic acid]
Appearance of the solids after stirring [1]: the solids remained free-flowing, suspended particulates
Result ([2]; 22 ° C., water content 0.86 %, additive 1.22 g 1-butene): No change
Result ([2]; 22 ° C., water content 0.86 %, additives None): Opaque with sticky, gelatinous
Result ([2]; 70 ° C., water content 0.86 %, additives None): No change
Result ([2]; 70 ° C., water content 3.19 %, additive 0.1 mL water): No change
Result ([2]; 70 ° C., water content 5.54 %, additive 0.1 mL water): Less turbid
Result ([2]; 70 ° C., water content 7.72 %, additive 0.1 mL water): Much less turbid; solids gone
Result ([2]; 70 ° C., water content 9.8 %, additive 0.1 mL water): Clear solution
HPPA-Na2 solubility ([3]; Ex. 4, Val. 52.0 wt %, Val Trimer 26.0 wt %, 1-butene 21.2 wt %, Water 0.103 wt %): 4.8 ppm
Description ([3]; Ex. 4, Water 0.103 wt %): Hazy watery
HPPA-Na2 solubility ([3]; Ex. 5, Val. 52.1 wt %, Val Trimer 26.0 wt %, 1-butene 21.1 wt %, Water 0.380 wt %): 15.5 ppm
Description ([3]; Ex. 5, Water 0.380 wt %): Very hazy
HPPA-Na2 solubility ([3]; Ex. 6, Val. 52.7 wt %, Val Trimer 26.4 wt %, 1-butene 20.8 wt %, Water 0.860 wt %): 21.3 ppm
Description ([3]; Ex. 6, Water 0.860 wt %): Solid gel
Observations ([4]; Example 1, val/val trimer 8.42 g, 1-butene 2.41 g, Water 0.29 %): Voluminous, gelatinous
Observations ([4]; Example 2, val/val trimer 8.94 g, 1-butene 2.26 g, Water 0.87 %): Mixture of gel and sticky
Observations ([4]; Example 3, val/val trimer 8.97 g, 1-butene 2.22 g, Water 1.47 %): Sticky material on glass
